According to patent US20220347299A1, “FLUORESCENT SYSTEMS FOR BIOLOGICAL IMAGING AND USES THEREOF” (LIGHTOX LIMITED, priority 2019, published 2022):

Tests used:
Bacillus subtilis = experiment: Baclight staining (propidium iodide / Syto 9), widefield imaging, B. subtilis; type: cell-based; conditions: 1 μM, 405 nm, 5 min
Protocol: Samples prepared according to Table 9 were treated with compounds by diluting 10 mM of stock solution in media to make a 100 μM concentration. This solution was then further diluted 1:10 and 1:100 in media to make 10 μM and 1 μM media solutions containing the compound. 50 μl of cell culture were then added to the 100 μM, 10 μM and 1 μM compound-containing media preparations. Following the treatment outlined in Table 9, each of the three bacterial strains were stained using a Baclight™ staining kit containing separate solutions of Syto™ 9 and Propidium Iodide. One extra sample treated with 0.1 μM of each compound was also included in this assay. M. smegmatis, S. epidermis and B. subtilis were stained with propidium iodide to show non-viable cells and with Syto 9 to show all cells. The following staining procedure was used: • 1. 1 ml of each sample was eluted into a well of a 12-well plate; • 2. One half of the 12 well plate was irradiated at approximately 15 mW/cm^2 for 5 mins; • 3. The content of each well was eluted into separate Eppendorfs and centrifuged at 10,000 r.p.m for 3 rains to form a culture pellet; • 4. Media was then removed, and each pellet resuspended in 200 μl of 1× PBS before being centrifuged at 10,000 r.p.m. for 3 mins. • 5. A preparation of Baclight™-staining solution was made using 1 ml 1× PBS, 3 μl propidium iodide and 3 μl Syto™ 9; • 6. […]

black-grass cells = experiment: Cytotoxicity assay (FDA/PI) in black-grass cell suspension culture; type: cell-based
Protocol: 5 mL of black-grass cell suspension culture was treated with 0.1, 1, 5, and 10 μM of compound numbers 7, 14, 12 and 15 for 1 hour at room temperature. Cells treated with 0.1% DMSO were used as a control. Cells were irradiated (˜365 nm) for 5 minutes before being incubated at 25° C., 150 rpm for 24 hours. In addition, the cytotoxicity of the compounds without irradiation was also assessed. Cell viability of five biological replicates for each concentration were determined via fluorescence assay (FDA/PI) assay. Percentage of cell viability was calculated using following formulation:
% viability={live cells (FDA)/(live cells+dead cells)}×100
The statistical analysis of percentage of cell viability was performed through one-way analysis of variance (ANOVA) followed by Tukey HSD posthoc test using SPSS 23 (IBM, Chicago, Ill., USA).

With `COC(=O)/C=C/c1ccc(C#Cc2ccc(N(C)CCN)cc2)cc1` [Compound 12, methyl (2E)-3-[4-(2-{4-[(2-aminoethyl)(methyl)amino]phenyl}ethynyl)phenyl]prop-2-enoate] the “proportion of non-viable (red) cells following irradiation compared to non-irradiated sample” value (Bacillus subtilis) was “the proportion of non-viable (red) cells is increased”, the black-grass cell viability (black-grass cells; 5 μM and 10 μM, after ~365 nm irradiation) was “significantly reduced” and the “dependence of cytotoxic effect on irradiation” value (black-grass cells; black-grass cells, ~365 nm, 5 minutes) was “only observed after irradiation”.
